Here are results for two molecules from patent US20260355168A1, “COMPOSITIONS AND METHODS FOR TREATING AND DETECTING CANCER” (CASE WESTERN RESERVE UNIVERSITY, priority 2022, published 2026).

“Also recorded” adds a separate entry of the source.

Experiment [1] concerns LN229 tumor xenograft. Description: Human glioma flank tumor (LN229) growth assay in nude mice. It is filed as in vivo, athymic nude mice; human LN229 cells. As to the method:
FIGS. 9(A-C) illustrates a plot and images of the results of the human glioma tumor model in mice. LN229-flank tumors (n=6 per treatment group) established in nude mice were injected with vehicle or compound once a week for three weeks. A. Tumor sizes were measured once a week for four weeks and normalized to their starting sizes. Data is presented as average percent growth±s.e.m. Between-group comparisons were made using Student's t-test. Differences were considered significant at p<0.05. […] Representative images of H&E-stained sections from tumors (two per treatment group) harvested at 4-weeks are shown.
Glioma-cell tumor xenografts were prepared as previously described. Briefly, LN229 cells (2×10^6 per injection) mixed with Matrigel (Corning, Corning Inc., Corning, NY, USA) were subcutaneously injected into the flank of athymic nude (FoxN1^nu/Foxn1^nu) female mice bred by the Case Western Reserve University Athymic Animal Core Facility or obtained from The Jackson Laboratory (Bar Harbor, ME). Experiments were approved by our IACUC committee. Twelve days post tumor-cell-injection, 247678835 or DMSO was diluted into PBS to give final concentrations of 2 mM or 20%, respectively, and 25 μl was injected into the center of each flank tumor. Additional compound or DMSO injections were given 7 and 14 days after the first injection, and tumor volumes [(length×width^2)/2] were recorded once a week for 4 weeks. At four weeks, mice were sacrificed, and tumors were isolated, fixed in 10% buffered formalin, and prepared for paraffin sectioning. Five micron-thick sections were cut, stained with H&E, and images captured with a Hamamatsu Nanozoomer S60 Slide Scanner (Hama-matsu Photonics, K.K., Bridgewater, NJ, USA).
Human LN229 glioma cells were subcutaneously injected into the flanks of twelve athymic nude mice (n=6 per treatment group). Once tumors were established (12-days post cell injection), DMSO or 247678835 was injected into the center of each tumor once a week for three weeks, and tumor volumes were calculated from caliper measurements. […] Mice were sacrificed 4 weeks after the first treatment, and tumors were harvested, fixed, sectioned, and stained with H&E.

Experiment [2] concerns the target PTPμ (Homo sapiens, UniProt P28827). Nature of the experiment: In vitro phosphatase assay, GST-PTPμ_intra, malachite green. It is filed as biochemical. The arrangement: A2: GST-PTPμ_intra, entire intracellular domain, aa 765-1449 (phosphatase). The method, then:
FIG. 8 illustrates a histogram showing the results of the phosphatase assays. […] The enzyme was pretreated on ice for 10 min, and the reactions started by addition of a peptide substrate and incubation at 30 °C. The amount of released phosphate was measured at 15 min using the malachite green reaction and normalized to that of the vehicle-treated control. Data is presented as percentages±s.e.m. of the indicated number of independent experiments. Differences were assessed using the Student's t-test with comparison to an untreated control sample (as all DMSO samples were set to 100% release). A difference was deemed significant at p<0.05.
A GST fusion protein containing the intracellular domain of PTPμ (B5: aa 765-1449) (PTPμ_intra) was prepared as described. Phosphatase reactions (50 μl total volume) were assembled on ice by mixing 0.4 μg GST-PTPμ_intra with phosphatase buffer (25 mM Hepes pH 7.4, 50 mM NaCl and 2 mM DTT) and compounds (100 μM) or DMSO (1%). […] Colorimetric product was allowed to develop for 15 min at room temperature, and the absorbance of the samples and a standard curve of free phosphate (assembled per the manufacturer's instructions) were read at 600 nm on a Synergy HT Microplate Reader (BioTek Instruments Inc., Winooski, Vermont). The amount of released phosphate was calculated, normalized to that released by the DMSO control sample, and expressed as a percent. […]

PTPμ, sequence (P28827 21-1452): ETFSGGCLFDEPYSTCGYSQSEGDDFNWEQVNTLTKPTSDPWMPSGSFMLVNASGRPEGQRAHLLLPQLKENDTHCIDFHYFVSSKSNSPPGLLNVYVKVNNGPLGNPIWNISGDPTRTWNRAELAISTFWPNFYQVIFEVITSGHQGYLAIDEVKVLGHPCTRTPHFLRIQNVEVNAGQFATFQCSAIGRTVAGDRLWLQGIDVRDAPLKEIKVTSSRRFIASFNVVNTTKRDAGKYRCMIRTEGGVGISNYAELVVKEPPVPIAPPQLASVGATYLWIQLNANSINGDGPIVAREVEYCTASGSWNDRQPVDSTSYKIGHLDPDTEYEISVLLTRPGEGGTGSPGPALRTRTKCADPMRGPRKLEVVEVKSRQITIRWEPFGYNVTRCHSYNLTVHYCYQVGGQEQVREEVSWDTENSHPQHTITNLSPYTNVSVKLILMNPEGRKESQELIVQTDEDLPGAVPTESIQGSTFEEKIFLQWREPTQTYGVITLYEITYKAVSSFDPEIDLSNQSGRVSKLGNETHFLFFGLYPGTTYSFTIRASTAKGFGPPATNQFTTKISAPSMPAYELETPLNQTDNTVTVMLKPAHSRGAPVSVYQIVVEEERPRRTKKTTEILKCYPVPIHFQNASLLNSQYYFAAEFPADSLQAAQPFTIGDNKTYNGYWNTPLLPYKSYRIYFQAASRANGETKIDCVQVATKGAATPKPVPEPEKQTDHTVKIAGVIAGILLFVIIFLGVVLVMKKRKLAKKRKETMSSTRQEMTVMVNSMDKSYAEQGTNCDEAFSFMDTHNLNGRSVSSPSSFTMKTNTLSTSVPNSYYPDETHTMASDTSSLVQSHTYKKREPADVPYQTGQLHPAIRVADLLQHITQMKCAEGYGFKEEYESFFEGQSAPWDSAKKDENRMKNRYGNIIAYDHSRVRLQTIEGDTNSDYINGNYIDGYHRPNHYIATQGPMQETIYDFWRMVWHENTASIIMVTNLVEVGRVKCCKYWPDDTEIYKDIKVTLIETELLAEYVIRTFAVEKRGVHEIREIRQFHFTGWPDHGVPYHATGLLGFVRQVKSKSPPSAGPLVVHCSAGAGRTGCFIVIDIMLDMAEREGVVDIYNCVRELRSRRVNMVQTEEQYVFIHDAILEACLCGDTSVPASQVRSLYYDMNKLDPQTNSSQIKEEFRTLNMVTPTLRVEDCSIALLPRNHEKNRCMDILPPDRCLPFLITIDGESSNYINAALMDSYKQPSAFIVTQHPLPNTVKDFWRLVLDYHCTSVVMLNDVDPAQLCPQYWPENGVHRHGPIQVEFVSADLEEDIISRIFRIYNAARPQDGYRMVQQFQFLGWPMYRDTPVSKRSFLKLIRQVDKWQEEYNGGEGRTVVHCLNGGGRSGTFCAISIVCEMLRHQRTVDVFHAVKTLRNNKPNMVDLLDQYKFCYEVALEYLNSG

For the molecule `COc1cc(C)ccc1OCC(=O)Nc1nc(-c2c[nH]c(C(N)=O)c2)cs1` [Compound 247678835], the “Tumor size relative to starting size” value in experiment [1] (3 weeks post first injection, intratumoral once a week, 2 mM, 25 μl) came to 1.3 ×. Moreover, the “Effect on tumor growth after treatment stopped” value in experiment [1] (4 weeks post first injection, in words) is reported as “appeared to rebound; also recorded: no longer statistically appreciable at 4 weeks post-injection”. In addition, the “Tumor histology (H&E)” value in experiment [1] (tumors harvested at 4 weeks) is “generally appeared less ‘cellular’ than DMSO-treated controls; also recorded: appeared smaller and less cellular”. Further, the “Effect on tumor growth” value in experiment [1] (up to 3 weeks post first injection, intratumoral, in words) was “inhibit glioma-cell growth in a human glioma tumor model in mice; also recorded: inhibit flank tumor growth in vivo; also recorded: able to affect tumor growth in vivo; also recorded: slowed tumor growth, producing a statistically significant growth reduction by 3 weeks post-first injection”. Further, the “Interference with malachite green dye” value in experiment [2] (apparent reaction product in absence of enzyme/substrate) is on record as “reacted with the malachite green dye, giving an apparent reaction product in the absence of enzyme/substrate; also recorded: interacted with the dye used to measure the release of free phosphate”.
`O=C(NCc1nc(-c2ccncc2)no1)c1ccc(Cl)c(S(=O)(=O)NCc2ccccc2)c1` [Compound 247678791]: the “Effect on PTPμ phosphatase activity (released phosphate)” value in experiment [2] (role: inhibitor, 100 μM, peptide substrate 60 μM, 30 °C, pH 7.4) was “modestly inhibit PTPμ's catalytic activity in vitro; also recorded: modest, but highly consistent reduction in released phosphate; also recorded: modestly inhibit the phosphatase activity of a PTPμ-intracellular construct; also recorded: modest, but statistically significant, reduction on enzymatic activity”.
